Consider 26 compounds from patent publication US7026339B2, “Inhibitors of HCV NS5B polymerase” (priority 2003, dated 2006).

For the assay, the system named is HuH-7 replicon cells 5–15 and 9–13 (HCV replication). The experiment in a line: Inhibition of viral replication in HuH-7 replicon cells (HCV RNA / GAPDH RNA by multiplex RT-PCR). As to conditions: Hepatitis C virus, 72 h; inhibiting 50% of replication; HuH-7 replicon cells, 3 days; read-out: IC50. It counts as cell-based. Here is the method:
Compounds were evaluated for inhibition of viral replication according to published procedures (Bartenschlager, R., et. al., Science, 1999, 285, 110) with modifications as follows.
HuH-7 replicon cells 5–15 and 9–13 were cultured in Dulbecco's minimal essential medium (DMEM) containing high glucose and supplemented with 10% fetal bovine serum (FBS), L-glutamine (2 mM), non-essential amino acids (1×), Penicillin (100 IU/mL)/Streptomycin (100 μg/mL) and G418 (Geneticin, 750 μg/mL). Unless otherwise specified, all media components were obtained from Invitrogen. Replicon cell line stocks were maintained as sub-confluent monolayers by passaging every Monday (1:6 split) and Thursday (1:10 split) and incubated at 37° C. with 5% CO2. Tissue culture plates (96-well white clear bottom plates, Corning #3610) were seeded at 7×10^3 cells/well and incubated for 24 hours prior to addition of the compounds.
Compounds in dry powder form were diluted in DMSO (30 mM stock). Serial dilutions of each Compound in DMSO (10 mM–0.1 mM) were performed in a 96-well polypropylene plate using a microtiter format. Culture media (200 μl) was added to the corresponding wells of a sterile 96-well round bottom plate. Diluted compound (2 μl) was added to the corresponding wells of the medial plate (final compound concentrations: 100 μM–1 μM). Culture media was removed from the corresponding wells of the 96-well plate containing the replicon cells and 150 μl diluted compound added. Media containing 1% DMSO and a serially diluted IFN were included on each plate. The cultures were incubated at 37° C. with 5% CO2 for 3 days. Cultures were observed visually for cytotoxicity or compound precipitation prior to RNA extraction described below.
Total cellular RNA was extracted by spin column technology (RNeasy 96, Qiagen) using the vacuum methodology according to the manufacturer's protocol. In brief, culture media was removed and 100 μl RLT lysis buffer containing 0.14M β-mercaptoethanol (β-ME) was added to each well. The plate was kept flat on the laboratory bench and shaken vigorously to lyse the cells. An equal volume of 70% ETOH was mixed with the lysate and added to the corresponding columns of the RNeasy 96-well plate. Vacuum was applied to draw the lysate through the filters. After ventilating the plate, buffer RW1 (1 mL) was drawn through each column. The waste tray was emptied and the filters washed twice with buffer RPE (1 mL/wash). After ventilating the tray, the RNeasy plate was removed and the bottom of the plate struck several times on a stack of paper towels to remove excess wash buffer. The waste tray was removed from the vacuum apparatus and the RNeasy 96-well plate dried by applying vacuum for 10 minutes. Total cellular RNA was eluted from the columns with two washes of 60 μl RNase-free water.
Relative quantitative multiplex RT-PCR was performed using TaqMan (TM) EZ RT Core Reagent kit (Perkin Elmer) according to the manufacturer's protocol (PE Applied Biosystems User Bulletin #2). Primer 061 (NT 61–82) and 139 (NT 139–158) amplifying a short region in the 5′ untranslated region of the HCV genome were utilized at 300 nM final concentrations. Probe #3 (NT 97–119) labeled with FAM reporter dye was utilized at 200 nM final concentration. Pre-developed human GAPDH primers and probe labeled with VIC reporter dye were obtained from PE Applied Biosystems (# 4310884E) and used according to the manufacturer's protocol. TM RT-PCR master mix was prepared containing the above primers/probe for both target RNA. Total cellular RNA (2 μl) was added to the reaction tubes of a 96-well optical plate that corresponded to the wells of the replicon culture plate. The final volume of each reaction was 50 μl. A standard curve was prepared from ten-fold serial dilutions of total cellular RNA extracated from 10^6 replicon cells and eluted in 30 μl RNase-free water. […]
(A replicon is a self-replicating genome or part of one, used to study replication in cells.)
Take `O=C(N/N=C/c1ccccc1OS(=O)(=O)c1ccc(C(F)(F)F)cc1)c1ccccc1[N+](=O)[O-]` [Compound 77, 2-{(E)-[2-(2-nitrobenzoyl)hydrazono]methyl}phenyl 4-(trifluoromethyl)benzenesulfonate]: the IC50 is below 5 µM. With `CN(c1ccccc1/C=N/NC(=O)Cc1ccc2c(c1)OCO2)S(=O)(=O)c1ccc(C(F)(F)F)cc1` [Compound 248, N-(2-{(E)-[(1,3-benzodioxol-5-ylacetyl)hydrazono]methyl}phenyl)-N-methyl-4-(trifluoromethyl)benzenesulfonamide] the figure was below 5 µM; with `O=C(Cc1ccccc1)N/N=C/c1ccccc1OS(=O)(=O)c1cccc(C(F)(F)F)c1` [Compound 122, 2-{(E)-[2-(2-phenylacetyl)hydrazono]methyl}phenyl 3-(trifluoromethyl)benzenesulfonate], 5 to 50 µM; with `O=C(Cc1cccc(N2CCCC2)c1)N/N=C/c1ccccc1OS(=O)(=O)c1ccc(C(F)(F)F)cc1` [Compound 98, 2-((E)-{2-[2-(3-pyrrolidin-1-ylphenyl)acetyl]hydrazono}methyl)phenyl4-(trifluoromethyl)benzenesulfonate], 5 to 50 µM. As to `COc1cccc(CC(=O)N/N=C/c2ccc(Cl)cc2OS(=O)(=O)c2ccc(C)cc2)c1` [Compound 209, 5-chloro-2-((E)-{[(3-methoxyphenyl)acetyl]hydrazono}methyl)-phenyl 4-methylbenzenesulfonate], the IC50 is below 5 µM. With `O=C(N/N=C/c1ccccc1OS(=O)(=O)c1ccc(C(F)(F)F)cc1)OCc1ccccc1` [Compound 75, benzyl (2E)-2-[2-({[4-(trifluoromethyl)phenyl]sulfonyl}oxy)-benzylidene]hydrazinecarboxylate] the figure was below 5 µM. With `Cc1ccc(S(=O)(=O)Oc2ccc(F)cc2/C=N/NC(=O)Cc2cccc(Cl)c2)cc1` [Compound 164, 2-((E)-{[(3-chlorophenyl)acetyl]-hydrazono}methyl)-4-fluorophenyl 4-methylbenzenesulfonate] the figure was below 5 µM; with `COc1cccc(CC(=O)N/N=C/c2c(C)cccc2OS(=O)(=O)c2ccc(C(F)(F)F)cc2)c1` [Compound 203, 2-((E)-{[(3-methoxyphenyl)acetyl]hydrazono}methyl)-3-methylphenyl 4-(trifluoromethyl)benzenesulfonate], below 5 µM.

As for `O=S(=O)(N/N=C/c1ccccc1OS(=O)(=O)c1ccc(C(F)(F)F)cc1)c1ccccc1` [Compound 255, 2-{(E)-[2-(phenylsulfonyl)hydrazono]methyl}phenyl4-(trifluoromethyl)benzenesulfonate], the IC50 was in the range of 5 to 50 µM. With `COc1cccc(CC(=O)N/N=C/c2ccccc2OS(=O)(=O)c2ccc(OCc3cnc(Cl)s3)cc2)c1` [Compound 225, 2-((E)-{2-[2-(3-methoxyphenyl)acetyl]hydrazono}methyl)-phenyl 4-[(2-chloro-1,3-thiazol-5-yl)methoxy]benzenesulfonate] the figure was above 50 µM. With `COc1cccc(CC(=O)N/N=C/c2ccccc2OS(=O)(=O)c2ccc(-c3cnco3)cc2)c1` [Compound 197, 2-((E)-{2-[2-(3-methoxyphenyl)acetyl]hydrazono}methyl)-phenyl 4-(1,3-oxazol-5-yl)benzenesulfonate] the figure was below 5 µM; with `COc1cccc(OS(=O)(=O)c2ccc(C(F)(F)F)cc2)c1/C=N/NC(=O)Cc1cccc(Cl)c1` [Compound 174, 2-((E)-{[(3-chlorophenyl)acetyl]hydrazono}methyl)-3-methoxyphenyl 4-(trifluoromethyl)benzenesulfonate], below 5 µM. In the case of `O=C(Cc1cc(C(F)(F)F)cc(C(F)(F)F)c1)N/N=C/c1ccccc1OS(=O)(=O)c1ccc(C(F)(F)F)cc1` [Compound 39, 2-[(E)-(2-{2-[3,5-bis(trifluoromethyl)phenyl]acetyl}hydrazono)-methyl]phenyl 4-(trifluoromethyl)benzenesulfonate] it was below 5 µM; in that of `O=C(Cc1cccc(Br)c1)N/N=C/c1ccccc1OS(=O)(=O)c1ccc(C(F)(F)F)cc1` [Compound 62, 2-((E)-{2-[2-(3-bromophenyl)acetyl]hydrazono}methyl)-phenyl 4-(trifluoromethyl)benzenesulfonate], below 5 µM; in that of `Cc1ccc(S(=O)(=O)Oc2cnccc2/C=N/NC(=O)Cc2cccc(Cl)c2)cc1` [Compound 228, 4-((E)-{2-[2-(3-chlorophenyl)acetyl]hydrazono}methyl)-pyridin-3-yl 4-methylbenzenesulfonate], below 5 µM. `O=C(Cc1ccccc1)N/N=C/c1ccccc1OS(=O)(=O)c1ccc(Br)cc1` [Compound 128, 2-{(E)-[2-(2-phenylacetyl)hydrazono]methyl}phenyl 4-bromobenzenesulfonate]: the IC50 was below 5 µM. Regarding `O=C(Cc1cccc(-n2cccc2)c1)N/N=C/c1ccccc1OS(=O)(=O)c1ccc(C(F)(F)F)cc1` [Compound 97, 2-[(E)-(2-{2-[3-(1H-pyrrol-1-yl)phenyl]acetyl}hydrazono)methyl]phenyl4-(trifluoromethyl)benzenesulfonate], the 50% inhibitory concentration (IC50) was above 50 µM. For the compound `O=C(Cc1c[nH]cn1)N/N=C/c1ccccc1OS(=O)(=O)c1ccc(C(F)(F)F)cc1` [Compound 5, 2-((E)-{2-[2-(1H-imidazol-4-yl)acetyl]hydrazono}methyl)phenyl 4-(trifluoromethyl)benzenesulfonate], the IC50 was below 5 µM. With `COc1cccc(CC(=O)N/N=C/c2cc(F)ccc2OS(=O)(=O)c2ccc(C)cc2)c1` [Compound 158, 4-fluoro-2-((E)-{[(3-methoxyphenyl)acetyl]hydrazono}methyl)-phenyl 4-methylbenzenesulfonate] the figure was below 5 µM; with `CCCCCc1ccc(S(=O)(=O)Oc2ccccc2/C=N/NC(=O)Cc2cccc(OC)c2)cc1` [Compound 183, 2-((E)-{2-[2-(3-methoxyphenyl)acetyl]hydrazono}methyl)-phenyl 4-pentylbenzenesulfonate], below 5 µM. Regarding `COc1cccc(CC(=O)N/N=C/c2ccccc2OS(=O)(=O)c2ccc(C(F)(F)F)cc2)c1` [Compound 146, 2-((E)-{2-[2-(3-methoxyphenyl)acetyl]hydrazono}methyl)-phenyl 4-(trifluoromethyl)benzenesulfonate], the IC50 is below 5 µM. With `COC(=O)CCc1ccc(S(=O)(=O)Oc2ccccc2/C=N/NC(=O)Cc2cccc(OC)c2)cc1` [Compound 224, methyl 3-(4-{[2-((E)-{[(3-methoxyphenyl)acetyl]hydrazono}methyl)-phenoxy]sulfonyl}phenyl)propanoate] the figure was above 50 µM. With `Cc1ccc(OS(=O)(=O)c2ccc(C(F)(F)F)cc2)c(/C=N/NC(=O)Cc2cccc(Cl)c2)c1` [Compound 175, 2-((E)-{[(3-chlorophenyl)acetyl]hydrazono}methyl)-4-methylphenyl 4-(trifluoromethyl)benzenesulfonate] the figure was below 5 µM; with `O=C(Cc1ccccc1SC(F)(F)F)N/N=C/c1ccccc1OS(=O)(=O)c1ccc(C(F)(F)F)cc1` [Compound 25, 2-{(E)-[2-(2-{2-[(trifluoromethyl)thio]-phenyl}acetyl)hydrazono]methyl}phenyl 4-(trifluoromethyl)benzenesulfonate], below 5 µM; with `COc1cc(CC(=O)N/N=C/c2ccccc2OS(=O)(=O)c2ccc(C(F)(F)F)cc2)cc(OC)c1OC` [Compound 55, 2-((E)-{2-[2-(3,4,5-trimethoxyphenyl)acetyl]hydrazono}methyl)-phenyl 4-(trifluoromethyl)benzenesulfonate], above 50 µM.

With `Cc1ccccc1CC(=O)N/N=C/c1ccccc1OS(=O)(=O)c1ccc(C(F)(F)F)cc1` [Compound 42, 2-((E)-{-[2-(2-methylphenyl)acetyl]hydrazono}methyl)-phenyl 4-(trifluoromethyl)benzenesulfonate], the IC50 was below 5 µM.

A word on the IC50: it is the midpoint of a concentration-inhibition curve.
